According to patent US6855730B2, “3-methylidenyl-2-indolinone modulators of protein kinase” (Sugen, Inc., priority 1998, dated 2005):

Target: T1, chimeric receptor having the extra-cellular domain of EGF-R and the intra-cellular domain of Her2 (Homo sapiens, UniProt P04626)
T1 construct: fused on or other part: the same chimera
Test: EGF-induced Her2-driven BrdU incorporation
Assay type: cell-based
Details: read-out: BrdU HER 2 driven IC50
Experimental: The cellular/catalytic assays described herein are performed in an ELISA format. The general procedure is as follows: a compound is introduced to cells expressing the test kinase, either naturally or recombinantly, for a selected period of time after which, if the test kinase is a receptor, a ligand known to activate the receptor is added. The cells are lysed and the lysate is transferred to the wells of an ELISA plate previously coated with a specific antibody recognizing the substrate of the enzymatic phosphorylation reaction. Non-substrate components of the cell lysate are washed away and the amount of phosphorylation on the substrate is detected with an antibody specifically recognizing phosphotyrosine compared with control cells that were not contacted with a test compound. The cellular/biologic assays described herein measure the amount of DNA made in response to activation of a test kinase, which is a general measure of a proliferative response. The general procedure for this assay is as follows: a compound is introduced to cells expressing the test kinase, either naturally or recombinantly, for a selected period of time after which, if the test kinase is a receptor, a ligand known to activate the receptor is added. After incubation at least overnight, a DNA labeling reagent such as Bromodeoxyuridine (BrdU) or 3H-thymidine is added. The amount of labeled DNA is detected with either an anti-BrdU antibody or by measuring radioactivity and is compared to control cells not contacted with a test compound.
EGF-Induced Her2-Driven BrdU Incorporation
Protocol • (1) Cells-are seeded at 8000 cells/well in DMEM, 10% CS, 2mM Gln in a 96-well plate. Cells are incubated overnight at 37° C. in 5% CO2. • (2) After 24 hours, the cells are washed with PBS, and then are serum starved in serum free medium (0% CS DMEM with 0.1% BSA) for 24 hours. • (3) On day 3, ligand (EGF=2 nM, prepared in DMEM with 0.1% BSA) and test compounds are added to the cells simultaneously. The negative control wells receive serum free DMEM with 0.1% BSA only, the positive control cells receive the ligand (EGF) but no test compound. Test compounds are prepared in serum free DMEM with ligand in a 96 well plate, and serially diluted for 7 test concentrations. • (4) After 20 hours of ligand activation, diluted BrdU labeling reagent (1:100 in DMEM, 0.1% BSA) is added and the cells are incubated with BrdU (final concentration=10 μM) for 1.5 hours. • (5) After incubation with labeling reagent, the medium is removed by decanting and tapping the inverted plate on a paper towel. FixDenat solution is added (50 μl/well) and the plates are incubated at room temperature for 45 minutes on a plate shaker. • (6) The FixDenat solution is thoroughly removed by decanting and tapping the inverted plate on a paper towel. Milk is added (5% dehydrated milk in PBS, 200 μ/well) as a blocking solution and the plate is incubated for 30 minutes at room temperature on a plate shaker. • (7) The blocking solution is removed by decanting and the wells are washed once with PBS. Anti-BrdU-POD solution (1:100 dilution in PBS, 1% BSA) is added (100 μl/well) and the plate is incubated for 90 minutes at room temperature on a plate shaker. • (8) The antibody conjugate is thoroughly removed by decanting and rinsing the wells 5 times with PBS, and the plate is dried by inverting and tapping on a paper towel. • (9) TMB substrate solution is added (100 μl/well) and incubated for 20 minutes at room temperature on a plate shaker until color development is sufficient for photometric detection. • (10) The absorbance of the samples are measured at 410 nm (in “dual wavelength” mode with a filter reading at 490 nm, as a reference wavelength) on a Dynatech ELISA plate reader.

T1 sequence (P04626 676-1255 limits assumed, change not shown): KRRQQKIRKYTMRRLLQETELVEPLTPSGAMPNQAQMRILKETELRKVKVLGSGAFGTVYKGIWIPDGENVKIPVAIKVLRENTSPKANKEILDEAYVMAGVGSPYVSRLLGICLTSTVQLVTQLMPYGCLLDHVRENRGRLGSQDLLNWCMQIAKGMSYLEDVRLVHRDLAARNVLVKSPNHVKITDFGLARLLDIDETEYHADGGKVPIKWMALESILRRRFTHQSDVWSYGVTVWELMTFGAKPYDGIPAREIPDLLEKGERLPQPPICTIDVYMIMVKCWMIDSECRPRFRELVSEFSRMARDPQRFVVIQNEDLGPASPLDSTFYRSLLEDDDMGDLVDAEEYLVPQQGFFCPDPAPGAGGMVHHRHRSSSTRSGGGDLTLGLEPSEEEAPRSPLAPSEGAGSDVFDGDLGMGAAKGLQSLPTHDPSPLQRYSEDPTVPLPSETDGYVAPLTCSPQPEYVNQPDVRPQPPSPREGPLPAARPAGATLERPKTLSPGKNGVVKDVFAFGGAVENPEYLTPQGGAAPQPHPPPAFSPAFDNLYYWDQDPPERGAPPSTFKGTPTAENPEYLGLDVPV

IC50 [µM] | Structure (SMILES)
20.4 | COc1ccc(C=C2C(=O)Nc3cc(NC(C)=O)ccc32)cc1-c1cccc(NC(C)=O)c1 (mixture of isomers) [Example 63, N-[3-(3′-Acetylamino-6-methoxybiphenyl-3-ylmethylene)-2-oxo-2,3-dihydro-1H-indol-6-yl]-acetamide]
4.4 | COc1c(C(C)C)cc(/C=C2/C(=O)Nc3cc(O)ccc32)cc1C(C)C [Example 4, 3-(3,5-Diisopropyl-4-methoxybenzylidene)-6-hydroxy-1,3-dihydroindol-2-one]
28.8 | COc1cc(/C=C2/C(=O)Nc3ccccc32)c(-c2ccc3ccccc3c2)cc1OC [Example 62, 3-(4,5-Dimethoxy-2-naphthalen-2-ylbenzylidene)-1,3-dihydroindol-2-one]
9 | COc1ccc(/C=C2/C(=O)Nc3ccc(Br)cc32)cc1-c1ccccc1 [Example 13, 5-Bromo-3-(6-methoxybiphenyl-3-ylmethylene)-1,3-dihydroindol-2-one]
16.5 | COc1ccc(/C=C2/C(=O)Nc3ccccc32)cc1C(C)C [Example 7, 3-(3-Isopropyl-4-methoxybenzylidene)-1,3-dihydroindol-2-one]
14.1 | COc1ccc(/C=C2/C(=O)Nc3ccccc32)cc1C1CCCC1 [Example 10, 3-(3-Cyclopentyl-4-methoxybenzylidene)-1,3-dihydroindol-2-one]
14.4 | COc1ccc(/C=C2/C(=O)Nc3ccc(Cl)cc32)cc1-c1cccs1 [Example 59, 5-chloro-3-(4-Methoxy-3-thiophen-2-ylbenzylidene)-1,3-dihydroindol-2-one]
6.6 | COc1c(C)cc(/C=C2/C(=O)Nc3ccc(Cl)cc32)cc1C [Example 21, 5-Chloro-3-(4-methoxy-3,5-dimethylbenzylidene)-1,3-dihydroindol-2-one]
4.5 | COc1cc(C)c(C=C2C(=O)Nc3ccc(Cl)cc32)cc1C(C)C [Example 9, 5-Chloro-3-(5-isopropyl-4-methoxy-2-methylbenzylidene)-1,3-dihydroindol-2-one]
> 50 | COc1cccc(-c2cc(OC)c(OC)cc2/C=C2/C(=O)Nc3ccc(Cl)cc32)c1 [Example 61, 5-Chloro-3-(4,5-3′-Trimethoxybiphenyl-2-ylmethylene)-1,3-dihydroindol-2-one]
13.5 | CCOc1cccc(-c2cc(OC)c(OC)cc2/C=C2/C(=O)Nc3ccccc32)c1 [Example 58, 3-(3′-Ethoxy-4,5-dimethoxybiphenyl-2-ylmethylene)-1,3-dihydroindol-2-one]
3.5 | CC1(C)CCc2cc(C=C3C(=O)Nc4ccc(Br)cc43)ccc2O1 (racemic) [Example 34, 5-Bromo-3-(2,2-dimethylchroman-6-ylmethylene)-1,3-dihydroindol-2-one]
4.2 | CC(=O)Nc1ccc2c(c1)NC(=O)/C2=C/c1ccc(OCCN2CCOCC2)c(C2CCCCC2)c1 [Example 16, N-{3-[3-Cyclohexyl-4-(2-morpholin-4-ylethoxy)-benzylidene]-2-oxo-2,3-dihydro-1H-indol-6-yl}-acetamide]
31.9 | COc1ccc(/C=C2/C(=O)Nc3ccccc32)cc1C1CCCCC1 [Example 12, 3-(3-Cyclohexyl-4-methoxybenzylidene)-1,3-dihydroindol-2-one]
> 50 | COc1cc(C)c(/C=C2/C(=O)Nc3ncccc32)cc1C(C)C [Example 45, 3-(5-Isopropyl-4-methoxy-2-methylbenzylidene)-1,3-dihydro-pyrrolo[2,3-b]pyridin-2-one]
5.4 | COc1cc(/C=C2/C(=O)Nc3ccccc32)c(-c2cccs2)cc1OC [Example 39, 3-(4,5-Dimethoxy-2-thiophen-2-ylbenzylidene)-1,3-dihydroindol-2-one]
9.3 | COc1ccc(/C=C2/C(=O)Nc3ccc(F)cc32)cc1C1CCCC1 [Example 11, 3-(3-Cyclopentyl-4-methoxybenzylidene)-5-fluoro-1,3-dihydroindol-2-one]

IC50 [µM] | Structure (SMILES)
33.4 | COc1cc(C)c(C=C2C(=O)Nc3ccccc32)cc1C(C)C [Example 8, 3-(5-Isopropyl-4-methoxy-2-methylbenzylidene)-1,3-dihydroindol-2-one]
10.5 | COc1c(C(C)C)cc(/C=C2/C(=O)Nc3ccc(C(C)=O)cc32)cc1C(C)C [Example 5, 5-Acetyl-3-(3,5-diisopropyl-4-methoxybenzylidene)-1,3dihydroindol-2-one]
5.5 | COc1ccc2c(c1)/C(=C\c1cc(C(C)C)c(OC)c(C(C)C)c1)C(=O)N2 [Example 17, 3-(3,5-Diisopropyl-4-methoxybenzylidene)-5-methoxy-1,3-dihydroindol-2-one]
> 50 | COc1ccc(/C=C2/C(=O)Nc3ncccc32)cc1C1CCCC1 [Example 47, 3-(3-Cyclopentyl-4-methoxybenzylidene)-1,3-dihydropyrrolo[2,3-b]pyridin-2-one]
21.4 | COc1cc(C)c(/C=C2/C(=O)Nc3ccc(Br)cc32)cc1C(C)C [Example 36, 5-Bromo-3-(5-isopropyl-4-methoxy-2-methyl-benzylidene)-1,3-dihydroindol-2-one]
> 50 | COc1ccc(/C=C2/C(=O)Nc3ccc(CCN4CCOCC4)cc32)cc1-c1ccsc1 [Example 26, 3-(4-Methoxy-3-thiophen-3-ylbenzylidene)-5-(2-morpholin-4-yl-ethyl)-1,3-dihydroindol-2-one]
> 50 | COc1ccc(/C=C2/C(=O)Nc3cc(NC(C)=O)ccc32)cc1-c1ccsc1 [Example 18, N-[3-(4-Methoxy-3-thiophene-3-ylbenzylidene)-2-oxo-2,3-dihydro-1H-indol-6-yl]-acetamide]
4.4 | CC1(C)CCc2cc(/C=C3/C(=O)Nc4ccc(Cl)cc43)ccc2O1 [Example 15, 5-Chloro-3-(2,2-dimethyl-chroman-6-ylmethylene)-1,3-dihydroindol-2-one]
8.1 | COc1ccc(C=C2C(=O)Nc3ccccc32)cc1-c1cccc(NC(C)=O)c1 [Example 29, N-[2′-Methoxy-5′-(2-oxo-1,2-dihydroindol-3-ylidenemethyl)-biphenyl-3-yl]-acetamide]
7.1 | CC(C)c1cc(/C=C2/C(=O)Nc3ccc(Cl)cc32)cc(C(C)C)c1OCCN1CCOCC1 [Example 24, 5-chloro-3-[3,5-diisopropyl-4-(2-morpholin-4-ylethoxy)-benzylidene]-1,3-dihydroindol-2-one]
8.1 | COc1cc(C)c(/C=C2/C(=O)Nc3ccc(F)cc32)cc1C(C)C [Example 30, 5-Fluoro-3-(5-isopropyl-4-methoxy-2-methyl-benzylidene)-1,3-dihydroindol-2-one]
31.1 | CC(=O)Nc1ccc2c(c1)NC(=O)/C2=C/c1ccc(OCCN2CCOCC2)c(-c2ccsc2)c1 [Example 50, N-{3-[4-(2-Morpholin-4-ylethoxy)-3-thiophen-3-ylbenzylidene]-2-oxo-2,3-dihydro-1H-indol-6-yl}-acetamide]
4.7 | COC(=O)c1ccc2c(c1)/C(=C\c1cc(C(C)C)c(OC)c(C(C)C)c1)C(=O)N2 [Example 6, 3-(3,5-Diisopropyl-4-methoxybenzylidene)-2-oxo-2,3-dihydro-1H-indole-5-carboxylic acid methyl ester]
40 | COc1ccc(/C=C2/C(=O)Nc3ccc(Cl)cc32)cc1-c1cccnc1 [Example 60]
9.1 | COc1c(C(C)C)cc(/C=C2/C(=O)Nc3cc(NC(C)=O)ccc32)cc1C(C)C [Example 3, N-[3-(3,5-Diisopropyl-4-methoxybenzylidene)-2-oxo-2,3-dihydro-1H-indol-6-yl]-acetamide]
25.3 | CCOc1cccc(-c2cc(C=C3C(=O)Nc4ccccc43)ccc2OC)c1 [Example 46, 3-(3′-Ethoxy-6-methoxybiphenyl-3-ylmethylene)-1,3-dihydroindol-2-one]
